In US7531623B2, “Hydrochloride salts of a glycopeptide phosphonate derivative” (Theravance, Inc., priority 2003, dated 2009):

Assay: Stability of hydrochloride salts of telavancin on storage (HPLC area % of pseudoaglycone and aglycone impurities)
Format: physicochemical
Conditions: for Aglycone of Cmpd 1 (HPLC area %) Initial / Pseudoaglycone of Cmpd 1 (HPLC area %) Initial: before storage at 25° C.; for Aglycone of Cmpd 1 (HPLC area %) 2 Week / Pseudoaglycone of Cmpd 1 (HPLC area %) 2 Week: stored at 25° C. for 2 weeks, glass vials; for Aglycone of Cmpd 1 (HPLC area %) 2-Week Change / Pseudoaglycone of Cmpd 1 (HPLC area %) 2-Week Change: stored at 25° C., difference between 2-week and initial value
Experimental: In the examples described below, HPLC sample analysis was conducted using an Agilent (Palo Alto, Calif.) Series 1100 instrument with Zorbax RP-Bonus 4.6 mm×250 mm columns, supplied by Agilent, having a 5 micron pore size, packed on C14 silica. Detection was by UV absorbance at 254 nm. Mobile phase A was 2%-98%-0.1% ACN-H2O-TFA; and mobile phase B was 90%-10%-0.1% ACN-H2O-TFA. A flow rate of 1.0 mL/min was used with moble phase A containing a gradient of mobile phase B as follows: 10 to 43% B for 30 min;, 43% B for 5 min; 43 to 100% B for 5 min; 100 to 10% B for 1 min; and 10% B for 14 min.
The effect of chloride ion content on the stability of hydrochloride salts of telavancin stored at −20° C., 5° C. and 25° C. was determined.
Eight lots of telavancin hydrochloride salts prepared as described in Example 2 were placed in identical glass vials and stored at −20° C., 5° C. and 25° C. under otherwise identical conditions for two weeks. The changes in HPLC area % for the pseudoaglycone and aglycone impurities were used to evaluate relative stability.
For each sample, the pH of the mixture from which it was isolated, is indicated. The column entitled, “2 Week Change” is the difference in HPLC area % between the value observed after two weeks and the initial value and is graphically illustrated in FIGS. 1 and 2.

Row | Structure (SMILES) | Aglycone of Cmpd 1 (HPLC area %) Initial | Pseudoaglycone of Cmpd 1 (HPLC area %) Initial | Aglycone of Cmpd 1 (HPLC area %) 2 Week | Pseudoaglycone of Cmpd 1 (HPLC area %) 2 Week | Aglycone of Cmpd 1 (HPLC area %) 2-Week Change | Pseudoaglycone of Cmpd 1 (HPLC area %) 2-Week Change
1 | CCCCCCCCCCNCCN[C@@]1(C)C[C@H](O[C@H]2[C@H](Oc3c4cc5cc3Oc3ccc(cc3Cl)[C@@H](O)[C@@H](NC(=O)[C@@H](CC(C)C)NC)C(=O)N[C@@H](CC(N)=O)C(=O)N[C@H]5C(=O)N[C@H]3C(=O)N[C@H](C(=O)N[C@H](C(=O)O)c5cc(O)c(CNCP(=O)(O)O)c(O)c5-c5cc3ccc5O)[C@H](O)c3ccc(c(Cl)c3)O4)O[C@H](CO)[C@@H](O)[C@@H]2O)O[C@@H](C)[C@H]1O [2.42, telavancin] | 0.03 HPLC area % | 0.32 HPLC area % | 0.05 HPLC area % | 0.40 HPLC area % | +0.02 HPLC area % | +0.08 HPLC area %
2 | CCCCCCCCCCNCCN[C@@]1(C)C[C@H](O[C@H]2[C@H](Oc3c4cc5cc3Oc3ccc(cc3Cl)[C@@H](O)[C@@H](NC(=O)[C@@H](CC(C)C)NC)C(=O)N[C@@H](CC(N)=O)C(=O)N[C@H]5C(=O)N[C@H]3C(=O)N[C@H](C(=O)N[C@H](C(=O)O)c5cc(O)c(CNCP(=O)(O)O)c(O)c5-c5cc3ccc5O)[C@H](O)c3ccc(c(Cl)c3)O4)O[C@H](CO)[C@@H](O)[C@@H]2O)O[C@@H](C)[C@H]1O [3.68, telavancin] | 0.06 HPLC area % | 0.43 HPLC area % | 0.08 HPLC area % | 0.51 HPLC area % | +0.02 HPLC area % | +0.08 HPLC area %
3 | CCCCCCCCCCNCCN[C@@]1(C)C[C@H](O[C@H]2[C@H](Oc3c4cc5cc3Oc3ccc(cc3Cl)[C@@H](O)[C@@H](NC(=O)[C@@H](CC(C)C)NC)C(=O)N[C@@H](CC(N)=O)C(=O)N[C@H]5C(=O)N[C@H]3C(=O)N[C@H](C(=O)N[C@H](C(=O)O)c5cc(O)c(CNCP(=O)(O)O)c(O)c5-c5cc3ccc5O)[C@H](O)c3ccc(c(Cl)c3)O4)O[C@H](CO)[C@@H](O)[C@@H]2O)O[C@@H](C)[C@H]1O [3.94, telavancin] | 0.04 HPLC area % | 0.43 HPLC area % | 0.09 HPLC area % | 0.56 HPLC area % | +0.05 HPLC area % | +0.13 HPLC area %
4 | CCCCCCCCCCNCCN[C@@]1(C)C[C@H](O[C@H]2[C@H](Oc3c4cc5cc3Oc3ccc(cc3Cl)[C@@H](O)[C@@H](NC(=O)[C@@H](CC(C)C)NC)C(=O)N[C@@H](CC(N)=O)C(=O)N[C@H]5C(=O)N[C@H]3C(=O)N[C@H](C(=O)N[C@H](C(=O)O)c5cc(O)c(CNCP(=O)(O)O)c(O)c5-c5cc3ccc5O)[C@H](O)c3ccc(c(Cl)c3)O4)O[C@H](CO)[C@@H](O)[C@@H]2O)O[C@@H](C)[C@H]1O [4.41, telavancin] | 0.06 HPLC area % | 0.42 HPLC area % |  | 0.53 HPLC area % |  | +0.11 HPLC area %
5 | CCCCCCCCCCNCCN[C@@]1(C)C[C@H](O[C@H]2[C@H](Oc3c4cc5cc3Oc3ccc(cc3Cl)[C@@H](O)[C@@H](NC(=O)[C@@H](CC(C)C)NC)C(=O)N[C@@H](CC(N)=O)C(=O)N[C@H]5C(=O)N[C@H]3C(=O)N[C@H](C(=O)N[C@H](C(=O)O)c5cc(O)c(CNCP(=O)(O)O)c(O)c5-c5cc3ccc5O)[C@H](O)c3ccc(c(Cl)c3)O4)O[C@H](CO)[C@@H](O)[C@@H]2O)O[C@@H](C)[C@H]1O [4.59, telavancin] | 0.10 HPLC area % | 0.52 HPLC area % | 0.17 HPLC area % | 0.72 HPLC area % | +0.07 HPLC area % | +0.20 HPLC area %
6 | CCCCCCCCCCNCCN[C@@]1(C)C[C@H](O[C@H]2[C@H](Oc3c4cc5cc3Oc3ccc(cc3Cl)[C@@H](O)[C@@H](NC(=O)[C@@H](CC(C)C)NC)C(=O)N[C@@H](CC(N)=O)C(=O)N[C@H]5C(=O)N[C@H]3C(=O)N[C@H](C(=O)N[C@H](C(=O)O)c5cc(O)c(CNCP(=O)(O)O)c(O)c5-c5cc3ccc5O)[C@H](O)c3ccc(c(Cl)c3)O4)O[C@H](CO)[C@@H](O)[C@@H]2O)O[C@@H](C)[C@H]1O [4.69, telavancin] | 0.07 HPLC area % | 0.45 HPLC area % | 0.13 HPLC area % | 0.62 HPLC area % | +0.06 HPLC area % | +0.17 HPLC area %
7 | CCCCCCCCCCNCCN[C@@]1(C)C[C@H](O[C@H]2[C@H](Oc3c4cc5cc3Oc3ccc(cc3Cl)[C@@H](O)[C@@H](NC(=O)[C@@H](CC(C)C)NC)C(=O)N[C@@H](CC(N)=O)C(=O)N[C@H]5C(=O)N[C@H]3C(=O)N[C@H](C(=O)N[C@H](C(=O)O)c5cc(O)c(CNCP(=O)(O)O)c(O)c5-c5cc3ccc5O)[C@H](O)c3ccc(c(Cl)c3)O4)O[C@H](CO)[C@@H](O)[C@@H]2O)O[C@@H](C)[C@H]1O [5.60, telavancin] | 0.15 HPLC area % | 0.48 HPLC area % | 0.41 HPLC area % | 1.11 HPLC area % |  | 
8 | CCCCCCCCCCNCCN[C@@]1(C)C[C@H](O[C@H]2[C@H](Oc3c4cc5cc3Oc3ccc(cc3Cl)[C@@H](O)[C@@H](NC(=O)[C@@H](CC(C)C)NC)C(=O)N[C@@H](CC(N)=O)C(=O)N[C@H]5C(=O)N[C@H]3C(=O)N[C@H](C(=O)N[C@H](C(=O)O)c5cc(O)c(CNCP(=O)(O)O)c(O)c5-c5cc3ccc5O)[C@H](O)c3ccc(c(Cl)c3)O4)O[C@H](CO)[C@@H](O)[C@@H]2O)O[C@@H](C)[C@H]1O [5.74, telavancin] | 0.43 HPLC area % | 0.89 HPLC area % | 1.08 HPLC area % | 1.94 HPLC area % |  | 
